The nature of the test: Inhibitory activity against the hepatitis C virus NS3 protease was determined. More on the design: species or system Hepacivirus hominis.

Where a SMILES comes first, the peptide text is derived from it. [ ]: non-standard residue; d: D form. Hyp(2-Ph-quinolin-4-yl) = O=C(O)[C@@H]1C[C@@H](Oc2cc(-c3ccccc3)nc3ccccc23)CN1; Ac3c(1R,2S-2-vinyl) = C=C[C@@H]1C[C@]1(N)C(=O)O; Chg = N[C@H](C(=O)O)C1CCCCC1

For the compound `CCC[C@@H]1C[C@]1(NC(=O)C1CC(OCc2cccc3ccccc23)CN1C(=O)[C@@H](NC(=O)[C@@H](NC(C)=O)C1CCCCC1)C(C)C)C(=O)O` (single isomer, unassigned), it took 5.5 µM to reach half-maximal inhibition (IC50).
For `CCC[C@H](NC(=O)C1CC(OCc2cccc3ccccc23)CN1C(=O)[C@@H](NC(=O)[C@@H](NC(C)=O)C1CCCCC1)C(C)C)C(=O)O` (single isomer, unassigned) the value was 23 µM.
The same measure for `C=C[C@@H]1C[C@]1(NC(=O)C1CC(OCc2cccc3ccccc23)CN1C(=O)[C@@H](NC(=O)[C@@H](NC(C)=O)C1CCCCC1)C(C)C)C(=O)O` (single isomer, unassigned): 0.63 µM.
Consider `CC(=O)N[C@H](C(=O)N[C@H](C(=O)N1C[C@H](OCc2cccc3ccccc23)C[C@H]1C(=O)N[C@]1(C(=O)O)C[C@H]1Cc1ccccc1)C(C)C)C1CCCCC1`, for which the IC50 (in general, the point on the concentration scale where inhibition reaches its midpoint) is 14 µM.
For `CCC1(CC)C[C@]1(NC(=O)C1CC(OCc2cccc3ccccc23)CN1C(=O)[C@@H](NC(=O)[C@@H](NC(C)=O)C1CCCCC1)C(C)C)C(=O)O` (single isomer, unassigned) the value was 310 µM; for `CCC[C@H](NC(=O)C1CC(OCc2ccccc2)CN1C(=O)[C@@H](NC(=O)[C@@H](NC(C)=O)C1CCCCC1)C(C)C)C(=O)O` (single isomer, unassigned), 530 µM; for `CC(=O)N[C@H](C(=O)N[C@H](C(=O)N1C[C@H](OCc2cccc3ccccc23)C[C@H]1C(=O)N[C@]1(C(=O)O)C[C@H]1CCc1ccccc1)C(C)C)C1CCCCC1`, 22 µM.
The same measure for `C=C[C@@H]1C[C@]1(NC(=O)C1CC(Oc2ccnc3cc(OC)ccc23)CN1C(=O)[C@@H](NC(=O)[C@@H](NC(C)=O)C1CCCCC1)C(C)C)C(=O)O` (single isomer, unassigned): 0.029 µM; for `CC[C@H]1C[C@@]1(NC(=O)C1CC(OCc2cccc3ccccc23)CN1C(=O)[C@@H](NC(=O)[C@@H](NC(C)=O)C1CCCCC1)C(C)C)C(=O)O` (single isomer, unassigned): 32 µM; for `COc1ccc2c(OC3CC(C(=O)NC4(C(=O)O)CC4)N(C(=O)[C@@H](NC(=O)[C@@H](NC(C)=O)C4CCCCC4)C(C)C)C3)ccnc2c1` (single isomer, unassigned): 0.85 µM.
The same measure for `CC(=O)N[C@H](C(=O)N[C@H](C(=O)N1C[C@H](OCc2cccc3ccccc23)C[C@H]1C(=O)N[C@@]1(C(=O)O)C[C@@H]1CCc1ccccc1)C(C)C)C1CCCCC1`: 90 µM; for `CCC[C@H]1C[C@@]1(NC(=O)C1CC(OCc2cccc3ccccc23)CN1C(=O)[C@@H](NC(=O)[C@@H](NC(C)=O)C1CCCCC1)C(C)C)C(=O)O` (single isomer, unassigned): 41 µM.
On to `CC(=O)N[C@H](C(=O)N[C@H](C(=O)N1CC(OCc2cccc3ccccc23)CC1C(=O)NC1(C(=O)O)CC1)C(C)C)C1CCCCC1` (single isomer, unassigned), for which the 50% inhibitory concentration (IC50) came to 14 µM.
In turn, `C=C[C@@H]1C[C@]1(NC(=O)[C@@H]1C[C@@H](Oc2cc(-c3ccccc3)nc3ccccc23)CN1C(=O)[C@@H](NC(=O)[C@@H](NC(C)=O)C1CCCCC1)C(C)C)C(=O)O` (Ac-[Chg]V[Hyp(2-Ph-quinolin-4-yl)][Ac3c(1R,2S-2-vinyl)]-OH) gave an IC50 of 0.019 µM.
The compound `CC(=O)N[C@H](C(=O)N[C@H](C(=O)N1CC(OCc2ccccc2)CC1C(=O)NC1(C(=O)O)CC1)C(C)C)C1CCCCC1` (single isomer, unassigned) yielded an IC50 of 330 µM.
The same measure for `CC(=O)N[C@H](C(=O)N[C@H](C(=O)N1C[C@H](OCc2cccc3ccccc23)C[C@H]1C(=O)N[C@@]1(C(=O)O)C[C@@H]1Cc1ccccc1)C(C)C)C1CCCCC1`: 81 µM.
`CC(=O)N[C@H](C(=O)N[C@H](C(=O)N1CC(Oc2cc(-c3ccccc3)nc3ccccc23)CC1C(=O)NC1(C(=O)O)CC1)C(C)C)C1CCCCC1` (single isomer, unassigned) had an IC50 of 0.55 µM.
The compound `CC(=O)N[C@H](C(=O)N[C@H](C(=O)N1CC(OCc2ccccc2)CC1C(=O)N[C@@H](CS)C(=O)O)C(C)C)C1CCCCC1` (single isomer, unassigned) yielded an IC50 of 140 µM.
The same measure for `CC(=O)N[C@H](C(=O)N[C@H](C(=O)N1CC(OCc2cccc3ccccc23)CC1C(=O)N[C@@]1(C(=O)O)C[C@@H]1C)C(C)C)C1CCCCC1` (single isomer, unassigned): 180 µM.
For `C=C[C@@H]1C[C@]1(NC(=O)C1CC(OCc2ccccc2)CN1C(=O)[C@@H](NC(=O)[C@@H](NC(C)=O)C1CCCCC1)C(C)C)C(=O)O` (single isomer, unassigned) the value was 9.7 µM.
For `CC(=O)N[C@H](C(=O)N[C@H](C(=O)N1C[C@H](OCc2cccc3ccccc23)C[C@H]1C(=O)N[C@@]1(C(=O)O)C[C@@H]1C(C)C)C(C)C)C1CCCCC1` the value was 640 µM; for `CC(=O)N[C@H](C(=O)N[C@H](C(=O)N1CC(OCc2cccc3ccccc23)CC1C(=O)N[C@]1(C(=O)O)C[C@H]1C)C(C)C)C1CCCCC1` (single isomer, unassigned), 22 µM.
The compound `CC(=O)N[C@H](C(=O)N[C@H](C(=O)N1C[C@H](OCc2cccc3ccccc23)C[C@H]1C(=O)N[C@]1(C(=O)O)C[C@H]1C(C)C)C(C)C)C1CCCCC1` registered an IC50 of 5.5 µM.
`CC[C@@H]1C[C@]1(NC(=O)C1CC(OCc2cccc3ccccc23)CN1C(=O)[C@@H](NC(=O)[C@@H](NC(C)=O)C1CCCCC1)C(C)C)C(=O)O` (single isomer, unassigned): half-maximal inhibition (IC50) required 4.8 µM.

The values above are taken from ChEMBL document CHEMBL1148308, “Peptide-based inhibitors of the hepatitis C virus NS3 protease: structure-activity relationship at the C-terminal position” (J Med Chem, 2004).
